# Experimental data as given in patent US5563155A, “Individual stereosiomers of 7-[3-(aminoalkyl)-1-pyrrolidinyl]-quinolones and naphthyridones as antibacterial agents” (Warner-Lambert Company, priority 1995, dated 1996).
# Where two headings read alike, the source gives them in different places.
# Columns and labels:
# [1] = system: Pseud. aeruginosa UI-18; assay: median protective dose in mice given lethal systemic infections, Pseud. aeruginosa UI-18; format: in vivo; conditions: Pseudomonas aeruginosa, single dose at time of challenge, read-out: median protective dose (PD50)
# Method: (§1) The in vivo activity is obtained when the compounds are tested according to the procedure of Miller, et al (Proc. Soc. Exp. Biol. Med. 57, 261, 1944). The median protective dose (PD50) was determined in mice given lethal systemic infections. Single doses of compound were given at time of challenge.
# (§2) By use of the above methods, the following minimum inhibiting concentration values (MICs in μg/mL), PD50 's in mg/kg, no effect phototoxicity dose in mg/kg and the cytotoxicity IC50 in μg/mL were obtained for representative enantiomers of the invention and compounds of the prior art as shown in the table.
# (§3) The in vivo data as PD50 s are reported below the line of MICs for the same compound.
# [2] = system: Esch. coli Vogel; assay: median protective dose in mice given lethal systemic infections, Esch. coli Vogel; format: in vivo; conditions: Escherichia coli, single dose at time of challenge, read-out: median protective dose (PD50)
# Method: as §1, §2, §3
# [3] = system: Esch. coli Vogel; assay: in vitro antibacterial activity, microtitration dilution (MIC), Esch. coli Vogel; format: cell-based; conditions: Escherichia coli, read-out: minimum inhibiting concentration (MIC)
# Procedure, shortened: (§4)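 Microtitration dilution method used to obtain minimum inhibitory concentrations, expressed as μg/mL.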
# [4] = cytotoxicity, hamster V-79 cells, colony reduction; format: cell-based; conditions: 3 hours treatment, colonies counted after 5 days, read-out: Cytotox (cytotoxicity IC50)
# Method: The cytotoxicity data is obtained using hamster V-79 cells. The cells were suspended in tissue culture medium and grown overnight. Cells were treated with drug for 3 hours, washed free of drug and then replated, and the colonies counted after 5 days. The concentration of drug that reduced colones by 50% relative to control was recorded.
# as §2
# [5] = in vivo; parameters: species or system mice; conditions: mouse, po
# Method: The phototoxicity data is obtained using depilated mice. The compound was administered orally each day for four successive days, followed each day by 3 hours of UVA radiation. The mice were examined for any positive signs (redness, erythema) relative to control animals. The no effect dose and the 50% effect dose were determined. By use of the above methods, the following minimum inhibiting concentration values (MICs in μg/mL), PD50 's in mg/kg, no effect phototoxicity dose in mg/kg and the cytotoxicity IC50 in μg/mL were obtained for representative enantiomers of the invention and compounds of the prior art as shown in the table.
# [6] = system: Strep. faecalis MGH-2; assay: in vitro antibacterial activity, microtitration dilution (MIC), Strep. faecalis MGH-2; format: cell-based; conditions: Enterococcus faecalis, MGH2, read-out: minimum inhibiting concentration (MIC)
# Procedure, shortened: as §4
# [7] = system: Ent. cloacae MA2646; assay: in vitro antibacterial activity, microtitration dilution (MIC), Ent. cloacae MA2646; format: cell-based; conditions: Enterobacter cloacae, read-out: minimum inhibiting concentration (MIC)
# Procedure, shortened: as §4
# [8] = system: Klebs. pneumoniae MGH-2; assay: in vitro antibacterial activity, microtitration dilution (MIC), Klebs. pneumoniae MGH-2; format: cell-based; conditions: Klebsiella pneumoniae, MGH2, read-out: minimum inhibiting concentration (MIC)
# Procedure, shortened: as §4
# [9] = system: Pseud. aeruginosa UI-18; assay: in vitro antibacterial activity, microtitration dilution (MIC), Pseud. aeruginosa UI-18; format: cell-based; conditions: Pseudomonas aeruginosa, UI18, read-out: minimum inhibiting concentration (MIC)
# Procedure, shortened: as §4
# [10] = system: Staph. aureus UC-76; assay: in vitro antibacterial activity, microtitration dilution (MIC), Staph. aureus UC-76; format: cell-based; conditions: Staphylococcus aureus, UC76, read-out: minimum inhibiting concentration (MIC)
# Procedure, shortened: as §4
# [11] = system: Strep. pheumoniae SV-1; assay: median protective dose in mice given lethal systemic infections, Strep. pneumoniae SV-1; format: in vivo; conditions: Streptococcus pneumoniae, single dose at time of challenge, read-out: median protective dose (PD50)
# Method: as §1, §2, §3
# [12] = system: Staph. aureus H 228; assay: in vitro antibacterial activity, microtitration dilution (MIC), Staph. aureus H 228; format: cell-based; conditions: Staphylococcus aureus, H228, read-out: minimum inhibiting concentration (MIC)
# Procedure, shortened: as §4
# [13] = system: Strep. pheumoniae SV-1; assay: in vitro antibacterial activity, microtitration dilution (MIC), Strep. pneumoniae SV-1; format: cell-based; conditions: Streptococcus pneumoniae, SV1, read-out: minimum inhibiting concentration (MIC)
# Procedure, shortened: as §4
# [14] = system: Strep. pyogenes C-203; assay: in vitro antibacterial activity, microtitration dilution (MIC), Strep. pyogenes C-203; format: cell-based; conditions: Streptococcus pyogenes, C203, read-out: minimum inhibiting concentration (MIC)
# Procedure, shortened: as §4
# [15] = system: Prot. rettgeri M 1771; assay: in vitro antibacterial activity, microtitration dilution (MIC), Prot. rettgeri M 1771; format: cell-based; conditions: Providencia rettgeri, M1771, read-out: minimum inhibiting concentration (MIC)
# Procedure, shortened: as §4
# [16] = system: Strep. pyogenes C-203; assay: median protective dose in mice given lethal systemic infections, Strep. pyogenes C-203; format: in vivo; conditions: Streptococcus pyogenes, single dose at time of challenge, read-out: median protective dose (PD50)
# Procedure, shortened: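 Mice given lethal systemic infections received single compound doses at time of challenge; PD50 (mg/kg) is the median protective dose.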
SMILES,"ED50 ([1]; UI18, PO)","ED50 ([1]; UI18, SC)",ED50 ([2]; PO),ED50 ([2]; SC),MIC [3],CC50 at 3 h [4],NOAEL at 96 h [5],MIC [6],MIC [7],MIC [8],MIC [9],MIC [10],"ED50 ([11]; SV1, PO)","ED50 ([11]; SV1, SC)",MIC [12],MIC [13],MIC [14],MIC [15],"ED50 ([16]; C203, PO)","ED50 ([16]; C203, SC)"
C[C@@H](N)[C@@H]1CCN(c2nc3c(cc2F)c(=O)c(C(=O)O)cn3C2CC2)C1 [Example 8],35 mg/kg,12 mg/kg,6 mg/kg,1 mg/kg,0.05 µg/mL,100 µg/mL,55 mg/kg,0.05 µg/mL,0.05 µg/mL,0.1 µg/mL,0.8 µg/mL,0.06 µg/mL,14 mg/kg,2 mg/kg,0.05 µg/mL,0.006 µg/mL,0.013 µg/mL,0.4 µg/mL,,
"CN[C@@H](C)[C@@H]1CCN(c2c(F)c(N)c3c(=O)c(C(=O)O)cn(C4CC4)c3c2F)C1 [Example 42, 3R,1S-5-amino-1-cyclopropyl-6,8-difluoro-7-[3-(1-N-methylaminoethyl)-1-pyrrolidinyl]-1,4-dihydro-4-oxo-3-quinoline carboxylic acid]",,,3 mg/kg,0.4 mg/kg,0.025 µg/mL,17 µg/mL,< 30 mg/kg,0.013 µg/mL,0.025 µg/mL,0.05 µg/mL,0.8 µg/mL,0.003 µg/mL,,,0.006 µg/mL,0.006 µg/mL,0.006 µg/mL,0.1 µg/mL,0.55 mg/kg,0.25 mg/kg
"C[C@H](N)[C@H]1CCN(c2nc3c(cc2F)c(=O)c(C(=O)O)cn3C2CC2)C1 [Example 6, 3S,1S-1-cyclopropyl-6-fluoro-7-[3-(1-aminoethyl)-1-pyrrolidinyl]-1,4-dihydro-4-oxo-1,8-naphthyridine-3-carboxylic acid]",96 mg/kg,25 mg/kg,8 mg/kg,1 mg/kg,0.05 µg/mL,77 µg/mL,> 100 mg/kg,0.1 µg/mL,0.05 µg/mL,0.2 µg/mL,1.6 µg/mL,0.025 µg/mL,28 mg/kg,10 mg/kg,0.2 µg/mL,0.05 µg/mL,0.05 µg/mL,0.4 µg/mL,,
CCN[C@H](C)[C@@H]1CCN(c2c(F)cc3c(=O)c(C(=O)O)cn(C4CC4)c3c2OC)C1 [Example 17],,,14 mg/kg,4 mg/kg,0.2 µg/mL,130 µg/mL,> 100 mg/kg,0.013 µg/mL,0.2 µg/mL,0.4 µg/mL,3.1 µg/mL,0.003 µg/mL,,,0.013 µg/mL,0.003 µg/mL,0.003 µg/mL,0.8 µg/mL,2 mg/kg,0.6 mg/kg
"C[C@H](N)[C@@H]1CCN(c2nc3c(cc2F)c(=O)c(C(=O)O)cn3-c2ccc(F)cc2F)C1 [Example 43, 3R,1S-7-[3(1-aminoethyl)-1-pyrrolidinyl]-1-(2,4-difluorophenyl)-6-fluoro-1,4-dihydro-4-oxo-1,8-naphthyridine-3-carboxylic acid]",,,3.5 mg/kg,1 mg/kg,0.1 µg/mL,280 µg/mL,> 100 mg/kg,0.025 µg/mL,0.2 µg/mL,0.2 µg/mL,0.8 µg/mL,0.006 µg/mL,3 mg/kg,3 mg/kg,0.05 µg/mL,0.006 µg/mL,0.006 µg/mL,0.4 µg/mL,1 mg/kg,1 mg/kg
"CCN[C@@H](C)[C@@H]1CCN(c2c(F)cc3c(=O)c(C(=O)O)cn(C4CC4)c3c2OC)C1 [Example 18, 3R,1S-1-cyclopropyl-6-fluoro-7-[3-(1-N-ethylaminoethyl)-1-pyrrolidinyl]-8-methoxy-1,4-dihydro-4-3-quinolinecarboxylic acid]",,,5 mg/kg,2 mg/kg,0.1 µg/mL,110 µg/mL,> 100 mg/kg,0.025 µg/mL,0.1 µg/mL,0.2 µg/mL,3.1 µg/mL,0.003 µg/mL,,,0.013 µg/mL,0.005 µg/mL,0.006 µg/mL,0.4 µg/mL,0.5 mg/kg,0.2 mg/kg
"CN[C@@H](C)[C@@H]1CCN(c2c(F)cc3c(=O)c(C(=O)O)cn(C4CC4)c3c2OC)C1 [Example 36, 3R,1S-1-cyclopropyl-6-fluoro-7-[3-(1-N-methylaminoethyl)-1-pyrrolidinyl]-8-methoxy-1,4-dihydro-4-oxo-3-quinolinecarboxylic acid]",,,4 mg/kg,1 mg/kg,0.05 µg/mL,33 µg/mL,> 100 mg/kg,0.025 µg/mL,0.05 µg/mL,0.1 µg/mL,0.8 µg/mL,0.013 µg/mL,,,0.013 µg/mL,0.013 µg/mL,0.003 µg/mL,0.2 µg/mL,1 mg/kg,0.1 mg/kg
